In series [1] the target is T1, PDE1 partially purified from bovine heart (Bos taurus, UniProt P14100).
T1 construct: PDE1 partially purified from bovine heart was used; from tissue; host or cells: bovine heart
Kind of series: PDE1 enzyme inhibition assay (Example 3). The format is biochemical. Particulars: 100 μM. The procedure: (§1) In this example, a racemic mixture of flosequinan and the (+) and (−) enantiomers of flosequinan were subjected to biochemical enzyme assays to determine their respective percent inhibition of a variety of phosphodiesterases (PDE1-PDE6). The reaction conditions for each PDE assay were as follows.
(§2) PDE1 partially purified from bovine heart was used. A racemic mixture of flosequinan, and each enantiomer of flosequinan, all at a molar concentration of 100 μM, were independently incubated with 13 μg PDE1 enzyme, 1.0 μM [^3H]cAMP and CaCl2/calmodulin in Tris buffer pH 7.5 for 20 minutes at 30° C. The reaction was terminated by boiling for 2 minutes, and the resulting AMP was converted to adenosine by addition of 10 mg/ml snake venom nucleotidase and further incubation at 30° C. for 10 minutes. Unhydrolyzed cAMP was bound to AGI-X2 resin, and the remaining [^3H]adenosine in the aqueous phase was quantitated by scintillation counting.

In series [2] the target is T2, PDE2 partially purified from human platelets (Homo sapiens, UniProt O00408).
T2 construct: PDE2 partially purified from human platelets was used; from tissue; host or cells: human platelets
T2 sequence (O00408 whole entry): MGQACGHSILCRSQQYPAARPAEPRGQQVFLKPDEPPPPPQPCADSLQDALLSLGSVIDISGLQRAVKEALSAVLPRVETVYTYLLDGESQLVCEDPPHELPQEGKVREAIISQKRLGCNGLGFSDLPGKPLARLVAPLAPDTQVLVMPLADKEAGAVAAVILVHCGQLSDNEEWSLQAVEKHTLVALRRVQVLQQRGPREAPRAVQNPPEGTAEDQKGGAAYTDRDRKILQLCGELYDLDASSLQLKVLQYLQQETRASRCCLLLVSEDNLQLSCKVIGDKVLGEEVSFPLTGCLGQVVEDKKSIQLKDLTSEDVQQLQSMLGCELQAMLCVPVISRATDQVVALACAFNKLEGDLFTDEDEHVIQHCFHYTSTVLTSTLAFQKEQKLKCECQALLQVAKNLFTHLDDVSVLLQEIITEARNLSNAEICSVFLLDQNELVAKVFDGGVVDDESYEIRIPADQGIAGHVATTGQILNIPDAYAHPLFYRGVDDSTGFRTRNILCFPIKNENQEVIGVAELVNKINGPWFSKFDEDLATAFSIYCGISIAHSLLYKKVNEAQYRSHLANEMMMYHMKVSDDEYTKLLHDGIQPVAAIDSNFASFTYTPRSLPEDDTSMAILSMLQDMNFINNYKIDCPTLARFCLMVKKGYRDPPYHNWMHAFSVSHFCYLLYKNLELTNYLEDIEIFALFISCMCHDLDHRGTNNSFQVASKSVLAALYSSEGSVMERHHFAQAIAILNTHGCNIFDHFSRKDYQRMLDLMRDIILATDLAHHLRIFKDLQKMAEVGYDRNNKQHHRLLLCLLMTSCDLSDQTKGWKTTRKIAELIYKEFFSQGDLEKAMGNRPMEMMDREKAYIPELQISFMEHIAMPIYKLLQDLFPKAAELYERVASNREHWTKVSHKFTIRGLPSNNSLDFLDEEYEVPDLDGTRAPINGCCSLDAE
Kind of series: PDE2 enzyme inhibition assay (Example 3). The format is biochemical. Particulars: 100 μM. The procedure: as §1
as §2, with “PDE2” for “PDE1”, “human platelets” for “bovine heart”, “23” for “13”, “25 μM cAMP containing 0.05” for “1.0”, “[^3H]cAMP” for “[^3H]cAMP and CaCl2/calmodulin”

In series [3] the target is T3, PDE3 partially purified from human platelets (Homo sapiens, UniProt Q14432).
T3 construct: PDE3 partially purified from human platelets was used; from tissue; host or cells: human platelets
T3 sequence (Q14432 whole entry): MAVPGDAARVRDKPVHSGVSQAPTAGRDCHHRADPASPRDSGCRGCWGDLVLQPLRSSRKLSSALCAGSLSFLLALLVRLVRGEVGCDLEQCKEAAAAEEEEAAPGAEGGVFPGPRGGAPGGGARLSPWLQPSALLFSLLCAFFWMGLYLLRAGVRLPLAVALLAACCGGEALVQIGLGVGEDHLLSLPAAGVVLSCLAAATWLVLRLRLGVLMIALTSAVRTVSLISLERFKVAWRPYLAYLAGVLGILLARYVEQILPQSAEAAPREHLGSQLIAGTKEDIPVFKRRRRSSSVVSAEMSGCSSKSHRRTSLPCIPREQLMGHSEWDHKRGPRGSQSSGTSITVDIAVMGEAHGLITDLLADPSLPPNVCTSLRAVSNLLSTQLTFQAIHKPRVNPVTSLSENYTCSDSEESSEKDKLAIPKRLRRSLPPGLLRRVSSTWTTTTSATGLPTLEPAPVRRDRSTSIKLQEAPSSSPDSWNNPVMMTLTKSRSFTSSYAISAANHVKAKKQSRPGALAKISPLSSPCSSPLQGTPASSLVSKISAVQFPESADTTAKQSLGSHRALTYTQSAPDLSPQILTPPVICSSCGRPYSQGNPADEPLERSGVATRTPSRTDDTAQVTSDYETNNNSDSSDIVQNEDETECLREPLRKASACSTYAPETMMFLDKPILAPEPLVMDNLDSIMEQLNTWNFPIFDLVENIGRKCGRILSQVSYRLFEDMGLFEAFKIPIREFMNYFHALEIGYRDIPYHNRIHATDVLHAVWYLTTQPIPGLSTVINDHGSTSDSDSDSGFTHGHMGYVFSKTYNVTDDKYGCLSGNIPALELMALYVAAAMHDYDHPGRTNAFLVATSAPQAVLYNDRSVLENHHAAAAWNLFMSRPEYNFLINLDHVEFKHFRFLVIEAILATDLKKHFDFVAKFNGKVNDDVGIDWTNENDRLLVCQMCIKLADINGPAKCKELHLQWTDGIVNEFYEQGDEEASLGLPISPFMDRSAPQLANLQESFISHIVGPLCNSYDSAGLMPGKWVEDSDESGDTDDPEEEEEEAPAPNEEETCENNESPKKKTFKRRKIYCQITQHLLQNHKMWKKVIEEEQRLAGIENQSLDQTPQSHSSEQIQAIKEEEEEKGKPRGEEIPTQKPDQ
Kind of series: PDE3 enzyme inhibition assay (Example 3). The format is biochemical. As to conditions: for % Inhibition of PDE3: 100 μM. On the procedure: as §1
as §2, with “PDE3” for “PDE1”, “human platelets” for “bovine heart”, “PDE3 enzyme and 1 μM cAMP containing 0.01” for “PDE1 enzyme, 1.0”, “[^3H]cAMP” for “[^3H]cAMP and CaCl2/calmodulin”

The test system of series [4] is PDE4 partially purified from human U-937 pronocytic cells. Kind of series: PDE4 enzyme inhibition assay (Example 3). Particulars: 100 μM. The format is biochemical. On the procedure: as §1
as §2, with “PDE4” for “PDE1”, “human U-937 pronocytic cells” for “bovine heart”, “20” for “13”, “PDE4 enzyme and 1 μM cAMP containing 0.01” for “PDE1 enzyme, 1.0”, “[^3H]cAMP” for “[^3H]cAMP and CaCl2/calmodulin”

The target of series [5] is T4, PDE5 partially purified from human platelets (Homo sapiens, UniProt O76074).
T4 construct: PDE5 partially purified from human platelets was used; from tissue; host or cells: human platelets
Kind of series: PDE5 enzyme inhibition assay (Example 3). The series is classed as biochemical. As to conditions: 100 μM. On the procedure:
as §1
PDE5 partially purified from human platelets was used. A racemic mixture of flosequinan, and each enantiomer of flosequinan, all at a molar concentration of 100 μM, were independently incubated with 120 μg PDE5 enzyme and 1 μM cGMP containing 0.01 μM [^3H]cGMP in Tris buffer pH 7.5 for 20 minutes at 30° C. The reaction was terminated by boiling for 2 minutes, and the resulting GMP was converted to guanosine by addition of 10 mg/ml snake venom nucleotidase and further incubation at 30° C. for 10 minutes. Unhydrolyzed cGMP was bound to AGI-X2 resin, and the remaining [^3H]guanosine in the aqueous phase was quantitated by scintillation counting.

In series [6] the target is T5, PDE6 partially purified from bovine retinal rod and activated by trypsin (Bos taurus, UniProt P11541+P23439).
T5 construct: from tissue; host or cells: bovine retinal rod
T5 sequence (P11541 2-856 limits assumed): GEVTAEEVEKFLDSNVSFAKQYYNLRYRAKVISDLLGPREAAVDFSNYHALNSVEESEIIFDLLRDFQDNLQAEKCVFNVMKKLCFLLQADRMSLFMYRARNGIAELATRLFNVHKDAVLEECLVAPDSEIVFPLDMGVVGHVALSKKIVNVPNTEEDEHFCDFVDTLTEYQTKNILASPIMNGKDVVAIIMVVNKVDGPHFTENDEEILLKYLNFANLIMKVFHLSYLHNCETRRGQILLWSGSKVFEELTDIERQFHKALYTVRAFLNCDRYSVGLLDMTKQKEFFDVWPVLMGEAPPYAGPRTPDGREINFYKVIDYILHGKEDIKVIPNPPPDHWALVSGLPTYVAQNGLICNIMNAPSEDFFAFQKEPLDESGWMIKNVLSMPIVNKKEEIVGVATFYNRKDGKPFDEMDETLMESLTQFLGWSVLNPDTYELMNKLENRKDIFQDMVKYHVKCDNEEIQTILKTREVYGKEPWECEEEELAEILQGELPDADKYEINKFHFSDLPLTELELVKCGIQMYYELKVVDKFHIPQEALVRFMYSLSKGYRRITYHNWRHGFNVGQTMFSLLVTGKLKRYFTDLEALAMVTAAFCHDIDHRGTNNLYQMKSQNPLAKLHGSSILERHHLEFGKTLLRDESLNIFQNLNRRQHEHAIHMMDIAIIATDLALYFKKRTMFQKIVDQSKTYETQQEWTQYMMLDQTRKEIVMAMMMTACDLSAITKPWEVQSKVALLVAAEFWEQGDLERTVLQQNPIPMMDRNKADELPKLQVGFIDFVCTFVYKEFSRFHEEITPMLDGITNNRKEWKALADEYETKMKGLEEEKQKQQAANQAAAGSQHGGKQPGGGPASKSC
T5 sequence (P23439 2-850 limits assumed): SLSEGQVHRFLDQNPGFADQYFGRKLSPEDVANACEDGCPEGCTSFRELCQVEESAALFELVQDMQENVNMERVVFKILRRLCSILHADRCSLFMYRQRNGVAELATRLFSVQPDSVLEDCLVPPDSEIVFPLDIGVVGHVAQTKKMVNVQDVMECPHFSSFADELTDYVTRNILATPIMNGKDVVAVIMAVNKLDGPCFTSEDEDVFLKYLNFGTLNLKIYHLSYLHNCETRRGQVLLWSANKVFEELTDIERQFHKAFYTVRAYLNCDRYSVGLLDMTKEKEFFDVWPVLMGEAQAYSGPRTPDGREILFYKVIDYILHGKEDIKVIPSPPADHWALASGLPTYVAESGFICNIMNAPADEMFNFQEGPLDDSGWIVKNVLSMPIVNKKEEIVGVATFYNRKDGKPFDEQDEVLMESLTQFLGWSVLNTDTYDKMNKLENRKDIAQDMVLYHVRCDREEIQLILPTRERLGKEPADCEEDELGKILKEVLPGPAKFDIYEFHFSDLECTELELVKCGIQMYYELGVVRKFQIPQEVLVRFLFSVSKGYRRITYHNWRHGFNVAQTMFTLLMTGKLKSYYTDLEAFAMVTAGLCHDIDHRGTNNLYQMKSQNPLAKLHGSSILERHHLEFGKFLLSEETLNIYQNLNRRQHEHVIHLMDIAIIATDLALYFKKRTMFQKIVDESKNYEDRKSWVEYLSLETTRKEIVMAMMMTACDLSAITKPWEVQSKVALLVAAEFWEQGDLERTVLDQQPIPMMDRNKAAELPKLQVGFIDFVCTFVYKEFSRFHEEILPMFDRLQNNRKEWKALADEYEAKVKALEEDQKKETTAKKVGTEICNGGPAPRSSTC
Kind of series: PDE6 enzyme inhibition assay (Example 3). The format is biochemical. As to conditions: 100 μM. On the procedure: as §1
(§3) PDE6 partially purified from bovine retinal rod and activated by trypsin was used. A racemic mixture of flosequinan, and each enantiomer of flosequinan, all at a molar concentration of 100 μM, were independently incubated with 0.2 μg/ml active PDE6 and 100 μM cGMP containing 0.1 μM [^3H]cGMP in Tris buffer pH 7.5 for 20 minutes at 30° C. Each reaction was terminated by boiling for 2 minutes. The resulting GMP was converted to guanosine by addition of 10 mg/ml snake venom nucleotidase, and further incubated at 30° C. for 10 minutes. Unhydrolyzed cGMP was bound to AGI-X2 resin, and [^3H]guanosine remaining in the aqueous phase was quantitated by scintillation counting.

Series [7] deals with T5, PDE6 partially purified from bovine retinal rod and activated by trypsin. Kind of series: PDE6 inhibition assay, Viagra vs racemic flosequinan (Example 1). The series is classed as biochemical. On the procedure:
as §3, with “used. In four separate reactions, Viagra at molar concentrations of 0.3 μM, 1.0 μM, and 3.0 μM, and a 100 μM” for “used. A”, “of flosequinan” for “of flosequinan, and each enantiomer of flosequinan, all at a molar concentration of 100 μM,”, “were” for “were independently”, “by raising the temperature to 100° C.” for “by boiling”, “venom nucleotidase” for “venom nucleotidase,”

The next series can be described thus: Solubility. The format is physicochemical. From the text: Thus, while the present invention is not limited by the form of oral administration, aqueous and organic solution of an enantiomer of flosequinan for oral administration is contemplated. Likewise, an enantiomer of flosequinan can be associated with a solid pharmaceutical carrier for solid oral administration (i.e., in pill form).

The test system of series [8] is phosphodiesterase III (PDE3). Particulars: Gristwood et al. 1992; Frodsham et al. 1992; cited from earlier work.

Entries after “also recorded” stand apart in the source; their conditions may differ.

Take `Cn1cc([S+](C)[O-])c(=O)c2ccc(F)cc21` (stereo not drawn) [(−)−flosequinan]: in series [1], the “% Inhibition of PDE1” value turned out to be 11%. Further, in series [2], the “% Inhibition of PDE2” value was found to be 13%. The “% Inhibition of PDE3” value in [3] was 5%. Also, the “% Inhibition of PDE4” value in series [4] came to 1%. Also, in [5], the “% Inhibition of PDE5” value stood at 10%. For the same molecule, the “% Inhibition of PDE6” value in [6] is listed as 21%.

Molecule `Cn1cc(C(N)=O)c(=O)c2ccc(Cl)cc21` [Example 4 e, 7-chloro-1-methyl-4-oxo-1,4-dihydroquinoline-3-carboxamide] gave a melting point greater than 240 °C.

Take `Cn1cc([S@@+](C)[O-])c(=O)c2ccc(F)cc21` [(+)−flosequinan]: in series [1], the “% Inhibition of PDE1” value was 28%; the “PDE1 inhibitory activity compared with the (−) enantiomer of flosequinan” value is “more PDE1 and PDE3 inhibitory activity”. In addition, the “% Inhibition of PDE2” value in series [2] is 18%. Besides, the “% Inhibition of PDE3” value in series [3] was found to be 32%. Besides, in [3] (same molar concentration), the “PDE3 inhibition compared to racemic mixture of flosequinan” value is “greater inhibition of PDE3”. In [3] (same molar concentration, listed as (+) enantiomer of flosequinan), the “PDE3 inhibition compared to the (−) enantiomer of flosequinan” value is “more PDE1 and PDE3 inhibitory activity; also recorded: eight-fold increase”. For the same molecule, the “% Inhibition of PDE4” value in series [4] came out at 6%. The “% Inhibition of PDE5” value in series [5] is listed as 17%. The “% Inhibition of PDE6” value in series [6] was 22%.

`Cn1cc([S+](C)[O-])c(=O)c2ccc(F)cc21` (racemic) [Flosequinan, 7-fluoro-1-methyl-3-(methylsulphinyl)-4(1H)-quinolone]: the “inhibition of PDE6 compared to sildenafil citrate” value in series [7] (100 μM vs sildenafil citrate 1 μM (100-fold lower molar concentration)) is recorded as “approximately half as much inhibition of PDE6”. The “times more compound on a molar basis than Viagra for around 50% PDE6 inhibition” value in series [7] (vs Viagra 0.3 μM) is listed as “more than 300 times”. Also, the “% Inhibition of PDE4” value in series [4] worked out at 24%. In the series “Solubility” (organic solvents), the “solubility in organic solvents” value is “soluble in many organic solvents”. Moreover, the solubility in water result in the series “Solubility” (water) was “water soluble”. Besides, the reported phosphodiesterase selectivity result in series [8] is recorded as “selective inhibitor of phosphodiesterase III (PDE3)”.

On to `Cn1cc(C(N)=O)c(=O)c2sccc21` [Example 4 b, 4-methyl-7-oxo-4,7-dihydrothieno[3,2-b]pyridine-6-carboxamide], for which the melting point fell in the range of 255 to 258 °C.

The values are drawn from US6562838B2, “Treatment of cardiovascular disease with quinolinone enantiomers” (R. T. Alamo Ventures I, L.L.C., priority 2001, dated 2003).
